Source: US9447090B2, “Imidazopyridine compounds” (Astellas Pharma Inc., priority 2011, dated 2016)

Legend:
human purified sGC = human purified sGC (Homo sapiens (Human), UniProt Q02108+Q02153); assay: Measurement of sGC activation (enzyme): cGMP produced by human purified sGC, HTRF; type: biochemical; details: for EC50: concentration giving 50% of maximum activation; for sGC activation [%]: activation when the compound was not added taken as 100%, maximum concentration 100 μM, with SNP
Experimental: The activity of sGC was evaluated by measuring the amount of a cyclic guanosine monophosphate (cGMP) which is produced by human purified sGC.
A test compound was dissolved in DMSO and diluted 20-fold with ultrapure water. 2 μL of the diluted test compound solution (maximum concentration 100 μM), 2 μL of a substrate solution [0.5 μM TEBA, 0.03 μM dithiothreitol, 0.01 μM GTP, 0.04 μM MgCl2, and 0.03 μM sodium nitroprusside (SNP)], and 6 μL of a human enzyme suspension were added to 384-well plates (manufactured by Greiner Bio-One), and incubated at room temperature for one hour. The quantitative determination of cGMP is using HTRF which based on the competition between sample cGMP and fluorescent dye labeled cGMP for binding to a cGMP-specific antibody.
The test results of some Example compounds that are the compounds of the formula (I) of the present invention are shown below. The sGC activation of the test compound was calculated by taking the activation when the compound was not added as 100%. As compared with the activation when the compound was not added, it was recognized that a compound having a sGC activation of more than 300% has sGC activation. In addition, in Tables, Ex represents Example number in which the test compound is described and the sGC activation [%] represents sGC activation (%).
Furthermore, the EC50 [μM] value was calculated as another parameter for expressing sGC activation. This parameter indicates the concentration of the evaluated compound giving 50% of a maximum activation, which is calculated based on the maximum activation that compound of Example 102 is added, which is taken as 100%. In this connection, when a known sGC activator, YC-1 (Lificiguat, [5-(1-benzyl-1H-indazol-3-yl)-2-furyl]methanol), was evaluated according to the above Test Example 1, its maximum activation was 52% of the maximum activation for compound of Example 102. Further, “−” means no evaluation.

Wistar male rats = assay: Blood flow increasing in vivo: hind limb blood flow in anesthetized rats, laser blood flow imaging; details: rat hind limb, oral, 2 hours after administration
Experimental: The hind limb blood flow in rats anesthetized with pentobarbital was measured by the following test method. Wistar male rats were used. […] Thus prepared administration liquid was orally administered, and 2 hours later, the hind limb blood flow was measured using a laser blood flow imaging device (PIM II Integral) under anesthesia with intraperitoneal administration of 60 mg/kg of pentobarbital.

[1] = maximum activation of Example 102 taken as 100%

Sequence of human purified sGC (Q02153 whole entry): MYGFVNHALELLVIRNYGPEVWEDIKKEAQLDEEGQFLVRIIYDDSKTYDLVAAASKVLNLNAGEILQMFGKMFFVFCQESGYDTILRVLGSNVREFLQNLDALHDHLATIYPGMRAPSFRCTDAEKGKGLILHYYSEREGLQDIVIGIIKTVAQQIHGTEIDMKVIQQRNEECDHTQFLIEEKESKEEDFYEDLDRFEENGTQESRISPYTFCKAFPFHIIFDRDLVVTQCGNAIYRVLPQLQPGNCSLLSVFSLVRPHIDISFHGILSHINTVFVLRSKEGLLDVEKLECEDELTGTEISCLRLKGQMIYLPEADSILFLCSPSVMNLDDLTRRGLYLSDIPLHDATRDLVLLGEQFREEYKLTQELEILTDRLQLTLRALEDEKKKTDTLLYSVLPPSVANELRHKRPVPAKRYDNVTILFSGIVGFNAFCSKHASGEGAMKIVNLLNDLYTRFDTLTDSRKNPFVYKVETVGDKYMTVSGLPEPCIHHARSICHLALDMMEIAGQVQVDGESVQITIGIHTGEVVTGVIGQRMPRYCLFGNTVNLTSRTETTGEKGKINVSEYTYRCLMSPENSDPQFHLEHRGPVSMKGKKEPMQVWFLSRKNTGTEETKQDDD
Sequence of human purified sGC (Q02108 whole entry): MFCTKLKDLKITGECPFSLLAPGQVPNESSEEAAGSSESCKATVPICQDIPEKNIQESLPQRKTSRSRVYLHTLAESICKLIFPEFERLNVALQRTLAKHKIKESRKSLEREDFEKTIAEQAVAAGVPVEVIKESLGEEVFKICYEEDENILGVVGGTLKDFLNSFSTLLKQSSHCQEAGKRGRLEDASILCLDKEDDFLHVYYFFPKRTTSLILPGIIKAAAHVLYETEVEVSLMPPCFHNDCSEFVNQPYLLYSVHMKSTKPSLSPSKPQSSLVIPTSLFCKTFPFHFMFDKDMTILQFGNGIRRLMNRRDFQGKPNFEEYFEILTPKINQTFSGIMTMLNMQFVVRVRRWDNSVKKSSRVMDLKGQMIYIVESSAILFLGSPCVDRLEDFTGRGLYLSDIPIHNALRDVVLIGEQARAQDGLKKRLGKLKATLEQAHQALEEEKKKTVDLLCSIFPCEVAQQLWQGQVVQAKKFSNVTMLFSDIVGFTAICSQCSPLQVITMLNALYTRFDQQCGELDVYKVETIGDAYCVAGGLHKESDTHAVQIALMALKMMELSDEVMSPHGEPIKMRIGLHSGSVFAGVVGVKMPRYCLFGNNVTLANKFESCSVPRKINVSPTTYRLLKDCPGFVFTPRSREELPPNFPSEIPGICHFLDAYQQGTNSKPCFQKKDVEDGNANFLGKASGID

SMILES | EC50 (human purified sGC; [1]) | blood flow increasing effect (Wistar male rats; dose of 10 mg/kg) | sGC activation [%] (human purified sGC) | blood flow increasing effect (Wistar male rats; dose of 30 mg/kg) | Emax (human purified sGC; maximum activation of Example 102 taken as 100%, read-out: maximum activation relative to the maximum activation for compound of Example 102)
Cc1nc2c(OCc3cccc(F)c3F)cccn2c1C(=O)N[C@@H]1c2ccccc2[C@H](O)[C@H]1O (stereo in doubt) [Ex 797] | 8.9 µM | – | – | – | –
Cc1nc2c(OCc3ccccc3F)cccn2c1C(=O)N[C@@H]1c2ccccc2[C@H](O)[C@H]1O (stereo in doubt) [Ex 798] | 8.6 µM | – | – | – | –
Cc1nc2c(OCC3CCCCC3)cccn2c1C(=O)N[C@@H](CO)c1ccccc1 [Ex 102] | 2.8 µM | exhibited a blood flow increasing effect | – | – | –
Cc1nc2c(OCc3c(F)cccc3F)cccn2c1C(=O)N[C@@H](CO)c1ccccc1.Cl [Ex 119] | 2.9 µM | exhibited a blood flow increasing effect | – | – | –
Cc1nc2c(OCC3CCCCC3)cccn2c1C(=O)NC(CO)CO [Ex 126] | 11 µM | – | – | – | –
Cc1nc2c(OCC3CCCCC3)cccn2c1C(=O)N[C@@H](CC(=O)O)CC1CCC1 [Ex 179] | 2.7 µM | exhibited a blood flow increasing effect | – | – | –
Cc1nc2c(OCCC(C)(C)C)cccn2c1C(=O)N[C@@H](CO)c1ccccc1.Cl [Ex 205] | – | – | >1000% | – | –
Cc1nc2c(OCC3CCCCC3)cccn2c1C(=O)N[C@H]1CCCN(C)C1 [Ex 226] | 6.7 µM | – | >1000% | – | –
Cc1nc2c(OCc3c(F)ccc(F)c3F)cccn2c1C(=O)N[C@@H](CO)c1ccccc1.Cl [Ex 244] | – | – | >1000% | exhibited a blood flow increasing effect | –
Cc1nc2c(OCc3c(F)cccc3F)cccn2c1C(=O)N[C@H]1CCCN(S(N)(=O)=O)C1 [Ex 247] | 2.4 µM | exhibited a blood flow increasing effect | – | – | –
Cc1nc2c(OCC3CCCCC3)cccn2c1C(=O)N[C@@H](CC(=O)O)c1ccccc1 [Ex 251] | 6.1 µM | exhibited a blood flow increasing effect | >1000% | – | –
Cc1nc2c(OCC3CCCCC3)cccn2c1C(=O)N[C@@H]1c2ccccc2C[C@H]1C(=O)O [Ex 321] | 4.5 µM | exhibited a blood flow increasing effect | >1000% | – | –
Cc1nc2c(OCC3CCCCC3)cccn2c1C(=O)N[C@@H](C)c1cccc(C(=O)O)c1 [Ex 323] | 13 µM | – | – | – | –
Cc1nc2c(OCC3CCCCC3)cccn2c1C(=O)N[C@H]1CCN(C)C1 [Ex 341] | 6.9 µM | – | 980% | exhibited a blood flow increasing effect | –
Cc1nc2c(OCc3c(F)cccc3F)cccn2c1C(=O)NC(CO)(CO)c1ccccc1.Cl [Ex 424] | 2.4 µM | exhibited a blood flow increasing effect | >1000% | – | –
Cc1nc2c(OCc3c(F)cccc3F)cccn2c1C(=O)N[C@@H]1c2ccccc2C[C@H]1O.Cl [Ex 430] | 2.6 µM | exhibited a blood flow increasing effect | – | – | –
Cc1nc2c(OCc3c(F)cccc3F)cccn2c1C(=O)N[C@@H](CO)c1cccc(F)c1.Cl [Ex 436] | – | – | >1000% | – | –
Cc1cccc2c1C[C@@H](C(=O)O)[C@@H]2NC(=O)c1c(C)nc2c(OCC3CCCCC3)cccn12 [Ex 693] | 17 µM | exhibited a blood flow increasing effect | >1000% | – | –
Cc1cccc2c1C[C@@H](C(=O)O)[C@@H]2NC(=O)c1c(C)nc2c(OCc3c(F)cccc3F)cccn12 [Ex 698] | 19 µM | exhibited a blood flow increasing effect | >1000% | – | –

SMILES | EC50 (human purified sGC; [1]) | blood flow increasing effect (Wistar male rats; dose of 10 mg/kg) | sGC activation [%] (human purified sGC) | blood flow increasing effect (Wistar male rats; dose of 30 mg/kg) | Emax (human purified sGC; maximum activation of Example 102 taken as 100%, read-out: maximum activation relative to the maximum activation for compound of Example 102)
Cc1nc2c(OCc3c(F)cccc3F)cccn2c1C(=O)N[C@@H]1c2c(F)cccc2C[C@H]1C(=O)O [Ex 699] | 15 µM | exhibited a blood flow increasing effect | >1000% | – | –
Cc1nc2c(OCc3c(F)ccc(F)c3F)cccn2c1C(=O)N[C@@H]1c2ccccc2C[C@H]1C(=O)O [Ex 702] | 6.2 µM | exhibited a blood flow increasing effect | >1000% | – | –
Cc1nc2c(OCC3CCCCC3)cccn2c1C(=O)N[C@@H]1c2c(F)cccc2C[C@H]1C(=O)O [Ex 704] | 11 µM | exhibited a blood flow increasing effect | >1000% | – | –
Cc1nc2c(OCC3CCCCC3)cccn2c1C(=O)N[C@H]1c2c(F)cccc2C[C@@H]1C(=O)O [Ex 705] | 11 µM | – | – | – | –
Cc1nc2c(OCC3CCCCC3)cccn2c1C(=O)N[C@@H]1c2ccc(F)cc2C[C@H]1C(=O)O [Ex 706] | 4.7 µM | exhibited a blood flow increasing effect | >1000% | – | –
Cc1nc2c(OCc3c(F)cccc3F)cccn2c1C(=O)N[C@@H]1c2ccccc2[C@@H](O)[C@H]1O [Ex 759] | 2.2 µM | exhibited a blood flow increasing effect | – | – | –
Cc1nc2c(OCc3c(F)cccc3F)cccn2c1C(=O)N[C@H](c1ccccc1)[C@H](O)CO [Ex 760] | 5.9 µM | exhibited a blood flow increasing effect | – | – | –
Cc1nc2c(OCc3c(F)cccc3F)cccn2c1C(=O)N[C@@]1(c2ccccc2)C[C@@H](O)[C@@H](O)C1 [Ex 766] | 17 µM | – | – | – | –
Cc1nc2c(OCc3c(F)cccc3F)cccn2c1C(=O)N[C@]1(c2ccccc2)C[C@@H](O)[C@@H](O)C1 [Ex 767] | 3 µM | exhibited a blood flow increasing effect | – | – | –
Cc1nc2c(OCc3c(F)cccc3F)cccn2c1C(=O)NC(C)(C)CO [Ex 772] | 5.4 µM | – | – | – | –
Cc1nc2c(OCc3c(F)cccc3F)cccn2c1C(=O)N[C@H](C)CO [Ex 776] | 15 µM | – | – | – | –
Cc1nc2c(OCc3c(F)cccc3F)cccn2c1C(=O)N[C@@H](CO)C(C)C [Ex 778] | 6.3 µM | – | – | – | –
Cc1nc2c(OCc3c(F)cccc3F)cccn2c1C(=O)N[C@H]1CCCNC1 [Ex 822] | 5.6 µM | – | – | – | –
Cc1nc2c(OCc3ccccc3F)cccn2c1C(=O)NC(CO)(CO)c1ccccc1 [Ex 828] | 7.6 µM | – | – | – | –
Cc1nc2c(OCc3cccc(F)c3F)cccn2c1C(=O)NC(CO)(CO)c1ccccc1 [Ex 829] | 2.7 µM | – | – | – | –
Cc1nc2c(OCc3c(F)cccc3F)cccn2c1C(=O)NC(CO)(CO)c1ccccn1 [Ex 834] | 4.1 µM | exhibited a blood flow increasing effect | – | – | –
Cc1nc2c(OCC3CCCCC3)cccn2c1C(=O)N[C@@H](CC(=O)O)CC(C)C [Example 12, (3R)-3-({[8-(cyclohexylmethoxy)-2-methylimidazo[1,2-a]pyridin-3-yl]carbonyl}amino)-5-methylhexanoic acid] | 3 µM | exhibited a blood flow increasing effect | – | – | –
OCc1ccc(-c2nn(Cc3ccccc3)c3ccccc23)o1 [YC-1, [5-(1-benzyl-1H-indazol-3-yl)-2-furyl]methanol, reference compound] | – | – | – | – | 52%
